The test system of one assay is renin expression in JGA. The experiment in a line: JGA renin expression by semiquantitative RT-PCR of total kidney RNA. It counts as in vivo, C57BL6 mice. To be noted: overnight. As for the experimental part:
(§1) 3. Animal experiments and measurements. C57BL6 mice were used following IRB approved protocols. Twenty-four hours prior to dietary sodium manipulations, all animals were fasted with free access to water, supplemented with 2% glucose and 0.1% KCl. Either one mg/kg amiloride and 2 mg/kg furosemide (52) or control carrier were applied by subcutaneous injection. Low sodium (0.3% sodium) and high sodium (6%) diets were purchased from Purina Mills (Purina Mills Inc., St. Louis, Mo.). Blood was collected by cardiac puncture. Spot urine was collected by bladder puncture. Hemidissected kidneys were formalin-fixed or snap-frozen in liquid nitrogen. For urine collection, mice were placed in metabolic cages (Nalgene, Nalge Nunc International, Rochester, N.Y.). Urine specimens were collected at 12 h intervals in tubes containing AEBSF and 8-hydroxyquinoline (NEN-DuPont, Boston, Mass.). Weight and urine volumes were recorded daily. Urinary Ang and A-I measurements were corrected for creatinine or expressed as total urinary Ang. […]
On the basis of immunostaining and expression studies, we conclude that, in addition to its major site of expression in JGA, renin is also expressed in connecting tubule. […] Renin expression in CNT cells was assessed by quantitative histology (frequency of CNT cells staining for renin). […] Manipulation of dietary sodium was monitored by measuring total sodium excretion. […]

For assay [1], the system named is renin expression in CNT cells. Put plainly: Renin expression in CNT cells by quantitative histology (renin immunostaining) after sodium diet and diuretics. In kind it is in vivo, C57BL6 mice. The protocol:
as §1, with “Ang. RNA isolation and RT-PCR were performed following standard protocols (QIAGEN, Valencia, Calif.).” for “Ang.”
5. […] The biotinylated secondary antibody was detected using streptavidin conjugated with horseradish peroxidase or alkaline phosphatase and visualized with either 3-amino-9-ethyl-carbazole (AEC; Sigma) or NBT/BCIP, respectively. […]
6. Quantitative histology. Renin expression in renal tubular cells as a function of sodium diet, or diuretics, was assayed by quantitating the frequency of renin immunostaining in segments of the distal nephron using the peroxidase reporter enzyme and AEC chromogen. Two independent blinded investigators scored sagittal kidney for renin using a subjective 0-4 scale: 0 equaled no tubular renin staining; 1 equaled at least one positive cell per tubule segment; 2 equaled between 25-50% of cells per of tubule segment; 3 equaled more than 50% of cells per tubule segment stained for renin; 4 equaled >75%. […] Results were analyzed by comparing the mean±S.E.M. between groups using unpaired t-tests. p<0.05 was considered significant. […]

Entries after “also recorded” stand apart in the source; their conditions may differ.

Consider `N=C(N)NC(=O)c1nc(Cl)c(N)nc1N` [amiloride], for which the JGA renin result in the assay with renin expression in JGA (high sodium diet plus amiloride (one mg/kg, subcutaneous), p<0.05) is reported as “significantly decreased”. For the same compound, the “renin expression in distal nephron” value in assay [1] (blocking the sodium channel of principal cells (summary statement)) is “up-regulation”. Moreover, the CNT immunoreactive renin result in assay [1] (high sodium diet plus amiloride (one mg/kg, subcutaneous), overnight, vs high sodium alone) is recorded as “increased; also recorded: marked increase”.

Take `NS(=O)(=O)c1cc(C(=O)O)c(NCc2ccco2)cc1Cl` [furosemide]: the JGA renin result with renin expression in JGA (sodium restriction plus furosemide (2 mg/kg, subcutaneous), vs sodium restriction alone) was “without additional effects”. Further, in assay [1] (sodium restriction plus furosemide (2 mg/kg, subcutaneous), overnight, vs sodium restriction alone), the “renin expression in CNT” value is listed as “decreased”.
